Measurements taken from ChEMBL document CHEMBL1147137, “Structure-activity relationship of uridine 5'-diphosphoglucose analogues as agonists of the human P2Y14 receptor” (J Med Chem, 2007).

target: T1, P2Y purinoceptor 14 (Homo sapiens, UniProt Q15391); test: Agonist activity at human P2Y14 expressed in COS7 cells assessed as stimulation of PLC-mediated [3H]inositol hydrolysis; assay type: functional, cell-based, COS-7; settings: not given
T1 sequence (Q15391 whole entry): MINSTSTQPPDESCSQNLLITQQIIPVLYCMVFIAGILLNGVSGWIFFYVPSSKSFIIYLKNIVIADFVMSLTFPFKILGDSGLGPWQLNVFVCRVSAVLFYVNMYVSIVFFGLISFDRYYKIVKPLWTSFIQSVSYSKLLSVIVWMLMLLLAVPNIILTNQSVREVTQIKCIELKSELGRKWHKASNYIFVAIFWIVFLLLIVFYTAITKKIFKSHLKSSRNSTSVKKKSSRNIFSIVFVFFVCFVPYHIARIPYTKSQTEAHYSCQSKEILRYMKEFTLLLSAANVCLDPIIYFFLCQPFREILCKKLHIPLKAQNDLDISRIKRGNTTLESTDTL

| Compound | EC50 |
| --- | --- |
| O=c1ccn([C@@H]2O[C@H](COP(=O)(O)OP(=O)(O)OC[C@@]3(O)O[C@H](CO)[C@@H](O)[C@@H]3O)[C@@H](O)[C@H]2O)c(=O)[nH]1 | 880 nM (agonist) |
| O=C(O)[C@H]1O[C@H](OP(=O)(O)OP(=O)(O)OC[C@H]2O[C@@H](n3ccc(=O)[nH]c3=O)[C@H](O)[C@@H]2O)[C@H](O)[C@@H](O)[C@@H]1O | 370 nM (agonist) |
| O=c1ccn([C@@H]2O[C@H](COP(=O)(O)OP(=O)(O)O[C@H]3[C@H](O)[C@@H](O)[C@H](O)[C@@H](O)[C@@H]3O)[C@@H](O)[C@H]2O)c(=O)[nH]1 | 1880 nM (agonist) |

More lines, now with the values ahead:

| EC50 | Compound |
| --- | --- |
| 49 nM (agonist) | O=c1ccn([C@@H]2O[C@H](COP(=O)(O)OP(=O)(O)O[C@H]3O[C@H](CO)[C@@H](O)[C@H](O)[C@H]3O)[C@@H](O)[C@H]2O)c(=S)[nH]1 |
| 350 nM (agonist) | O=c1[nH]c(=S)ccn1[C@@H]1O[C@H](COP(=O)(O)OP(=O)(O)O[C@H]2O[C@H](CO)[C@@H](O)[C@H](O)[C@H]2O)[C@@H](O)[C@H]1O |
| 420 nM (agonist) | O=C(O)[C@H]1O[C@H](OP(=O)(O)OP(=O)(O)OC[C@H]2O[C@@H](n3ccc(=O)[nH]c3=S)[C@H](O)[C@@H]2O)[C@H](O)[C@@H](O)[C@@H]1O |
| > 10000 nM | CSc1ccn([C@@H]2O[C@H](COP(=O)(O)OP(=O)(O)O[C@H]3O[C@H](CO)[C@@H](O)[C@H](O)[C@H]3O)[C@@H](O)[C@H]2O)c(=O)n1 |

same assay, conditions: cos-7

| EC50 | Compound |
| --- | --- |
| 810 nM (agonist) | CC(=O)N[C@@H]1[C@H](OP(=O)(O)OP(=O)(O)OC[C@H]2O[C@@H](n3ccc(=O)[nH]c3=O)[C@H](O)[C@@H]2O)O[C@@H](CO)[C@H](O)[C@H]1O (stereo in doubt) |
